Where two headings read alike, the source gives them in different places.
Key:
[1] = Stability of stock solutions; type: physicochemical; settings: DMSO stock solution, stock solution 1.00 mg/mL, n = 6, read-out: Remaining (%, Mean ± SD)
Experimental: Stock solutions of ISO and trans-stilbene (internal standard, IS) were prepared in DMSO at a final concentration of 1 mg/mL. These solutions were stored at −20 °C and protected from light. The calibration standard and quality control (QC) samples were prepared by serial dilution of the ISO stock solution with pooled blank murine plasma or respective tissue homogenate.
(§1) The stability of ISO was evaluated under various storage conditions. Stock solution stability was assessed after storage at room temperature (25 °C) and –20 °C. The stability of ISO in plasma was examined under the following conditions: short-term storage (25 °C for 24 h), long-term storage (–80 °C for 52 days), three freeze–thaw cycles, and post-preparative stability (samples kept in an autosampler at 4 °C for more than 24 h). As it is difficult to evaluate ISO stability directly in tissues, only the short-term stability in tissue homogenates was assessed (6 h on ice). Similarly, post-preparative stability in processed tissue samples was assessed using liver homogenate as a representative, due to the complexity of the hepatic matrix. Stability was considered acceptable if 85–115% of the initial ISO concentration remained.

[2] = Biodistribution study in mice following oral administration; type: in vivo, C57BL/6 mice
Experimental: Following oral administration of ISO at a dose of 200 µmol/kg (equivalent to 51.7 mg/kg), three to four mice (n = 3 or 4) were euthanized at each predetermined time point (5, 10, 20, 40, 60, and 80 min), and biological samples were collected. ISO concentrations were quantified using our validated HPLC-UV method. Exposure levels (AUC) in plasma and other individual biological matrices were calculated based on the mean concentrations at each time point.
Specific pathogen-free C57BL/6 mice (male; 6–8 weeks old; weight: 18–21 g) were purchased through Shenzhen Glorybay Biotech Co. (Shenzhen, China). The animals had ad libitum access to food and water prior to dosing. ISO was administered as an aqueous suspension (vehicle: 0.3% sodium carboxymethylcellulose with 0.2% L-ascorbic acid; ISO concentration: 5 mg/mL) via oral gavage at a dose of 200 µmol/kg (equivalent to 51.7 mg/kg, dosing volume: 10.34 mL/kg). At each predetermined time point (5, 10, 20, 40, 60 and 80 min) three to four mice (n = 3 or 4) were euthanized through cervical dislocation. Blood samples were collected into heparinized centrifuge tubes and centrifuged to obtain plasma. Following blood collection, the mice were dissected, and major organs/tissues—including the brain, abdominal fat, heart, small intestine, large intestine, kidney, liver, lung, abdominal muscle, spleen, and stomach—were harvested. The organs and tissues were cut into small pieces and rinsed with isotonic saline before being blotted dry. All collected biological samples were placed on dry ice. At the end of the in vivo study, all samples were stored at –80 °C in a deep freezer until HPLC analysis.
Non-compartmental pharmacokinetic analysis was performed using WinNonlin Standard Version 1.0 (Scientific Consulting Inc., Apex, NC, USA). Plasma and tissue exposure, expressed as the area under the concentration–time curve (AUC), was calculated using the mean values of the individual mice.

[3] = mice, oral; cited from earlier work
[4] = Stability of ISO in tissue homogenates; type: in vitro ADME; settings: mouse; for remaining at 6 h, 45 ng/mL / remaining at 6 h, 1600 ng/mL: read-out: Stability Remaining (%, Mean ± SD) Short-Term Stability (6 h on Ice)
From the text: (§2) In bioanalysis, analyte stability in biological matrices is crucial for ensuring accurate and reliable quantification. Instability can result in degradation or transformation during sample collection, storage, or processing, potentially compromising data integrity and study outcomes. Therefore, the stability of ISO in plasma was thoroughly evaluated under various storage conditions (Table 5). Assessing ISO stability in intact tissues is challenging, as replicating the native tissue environment is difficult. Accordingly, only short-term stability (6 h on ice) was assessed in tissue homogenates (Table 6). For post-preparative stability, hepatic homogenate—the most complex matrix—was selected as a representative.
For tissue samples, namely brain, fat, heart, small intestine, large intestine, kidney, liver, lung, muscle, spleen, and stomach, approximately 35 mg of each tissue was weighed and finely minced with scissors. The samples were homogenized in a 0.2% ascorbic acid solution (freshly prepared daily) in 50% methanol (v/v) at a ratio of 1:5 (w/v) for up to three cycles using a high-throughput tissue homogenizer (Wonbio-L, Wonbio, Shanghai, China) operating at 60 Hz for 60 s per cycle. Subsequently, three volumes of acetonitrile (containing IS at 400 ng/mL) were added to one volume of tissue homogenate. Following vigorous vortexing, the samples were centrifuged at 1902× g for 10 min at 15 °C. The clear supernatant was carefully transferred into an HPLC vial.
as §1

[5] = Stability of ISO in plasma samples under various storage conditions; type: in vitro ADME; settings: mouse plasma, read-out: Remaining (%, Mean ± SD)
From the text: as §2
For the cleanup of plasma samples, three volumes of acetonitrile (containing IS at 400 ng/mL) were added to one volume of murine plasma to precipitate proteins. After vortexing for 20 s, the samples were centrifuged at 1503× g for 10 min at 4 °C. The supernatant was carefully transferred to a glass insert preloaded in an autosampler vial. During each HPLC analysis, 10 μL of supernatant was injected into the HPLC system. The minimum plasma volume required per analysis was 25 μL.
as §1

[6] = test system: primary airway epithelial cells isolated from patients with chronic obstructive pulmonary disease (COPD); parameters: method as in PMID 28369685; settings: RES as comparator; cited from earlier work

COc1cc(/C=C/c2cc(O)cc(O)c2)ccc1O [ISO, trans-3,5,4′-trihydroxy-3′-methoxystilbene]
remaining at 24 h, 1 mg/mL ([1]; stored at room temperature for 24 h): 94.6 ± 0.7% | remaining at 480 h, 1 mg/mL ([1]; stored at −20 °C for 20 days): 105 ± 1.4% | Time at which mean concentrations in plasma and multiple tissues peak ([2]; oral suspension, 200 µmol/kg (51.7 mg/kg)): 10 min | Exposure (AUC) ranking across plasma and tissues ([2]; oral, 200 µmol/kg (51.7 mg/kg), AUC from mean concentrations, 5-80 min): stomach > small intestine > liver > large intestine > plasma > kidney > heart > spleen > lung > muscle | Penetration into brain and fat ([2]; oral, 200 µmol/kg, brain and fat samples, quantifiable levels printed as ≥75 ng/mL): only a few reached quantifiable levels | Detectability of ISO in the kidney, liver, and heart over time ([2]; oral, 200 µmol/kg, kidney, liver, heart): undetectable in some mice as early as 20 min | Detectability of ISO in the lung and muscle over time ([2]; oral, 200 µmol/kg, lung, muscle): detectable in the lung and muscle mainly between 10 and 20 min | Quantifiability of ISO in plasma over time ([2]; oral, 200 µmol/kg, plasma): unquantifiable in one out of four mice by 40 min | Time of peak plasma concentrations post-dosing [3]: ≤ 15 min | remaining at 6 h, 45 ng/mL ([4]; brain homogenate, 45.0 ng/mL): 101 ± 2.1% | remaining at 6 h, 1600 ng/mL ([4]; brain homogenate, 1600 ng/mL): 95.9 ± 1.7% | remaining at 6 h, 45 ng/mL ([4]; fat homogenate, 45.0 ng/mL): 101 ± 4.4% | remaining at 6 h, 1600 ng/mL ([4]; fat homogenate, 1600 ng/mL): 96.8 ± 2.5% | remaining at 6 h, 45 ng/mL ([4]; heart homogenate, 45.0 ng/mL): 93.8 ± 3.4% | remaining at 6 h, 1600 ng/mL ([4]; heart homogenate, 1600 ng/mL): 106 ± 2% | remaining at 6 h, 45 ng/mL ([4]; kidney homogenate, 45.0 ng/mL): 96.8 ± 2.6% | remaining at 6 h, 1600 ng/mL ([4]; kidney homogenate, 1600 ng/mL): 97.4 ± 2.8% | remaining at 6 h, 45 ng/mL ([4]; large intestine homogenate, 45.0 ng/mL): 92.6 ± 2.9% | remaining at 6 h, 1600 ng/mL ([4]; large intestine homogenate, 1600 ng/mL): 90.3 ± 3.6% | remaining at 24 h, 45 ng/mL ([4]; liver homogenate, 45.0 ng/mL, read-out: Stability Remaining (%, Mean ± SD) Post-Preparative Stability (More Than 24 h at 4 °C)): 105 ± 2.2% | remaining at 6 h, 45 ng/mL ([4]; liver homogenate, 45.0 ng/mL): 103 ± 2.1% | remaining at 24 h, 1600 ng/mL ([4]; liver homogenate, 1600 ng/mL, read-out: Stability Remaining (%, Mean ± SD) Post-Preparative Stability (More Than 24 h at 4 °C)): 94.9 ± 1% | remaining at 6 h, 1600 ng/mL ([4]; liver homogenate, 1600 ng/mL): 97.8 ± 1.2% | remaining at 6 h, 45 ng/mL ([4]; lung homogenate, 45.0 ng/mL): 97.3 ± 4% | remaining at 6 h, 1600 ng/mL ([4]; lung homogenate, 1600 ng/mL): 101 ± 1.7% | remaining at 6 h, 45 ng/mL ([4]; muscle homogenate, 45.0 ng/mL): 102 ± 5.5% | remaining at 6 h, 1600 ng/mL ([4]; muscle homogenate, 1600 ng/mL): 95 ± 2.5% | remaining at 6 h, 45 ng/mL ([4]; small intestine homogenate, 45.0 ng/mL): 91.8 ± 4.8% | remaining at 6 h, 1600 ng/mL ([4]; small intestine homogenate, 1600 ng/mL): 92.9 ± 3.8% | remaining at 6 h, 45 ng/mL ([4]; spleen homogenate, 45.0 ng/mL): 92.7 ± 6% | remaining at 6 h, 1600 ng/mL ([4]; spleen homogenate, 1600 ng/mL): 94.3 ± 4.3% | remaining at 6 h, 45 ng/mL ([4]; stomach homogenate, 45.0 ng/mL): 95 ± 2.9% | remaining at 6 h, 1600 ng/mL ([4]; stomach homogenate, 1600 ng/mL): 97.2 ± 2.2% | remaining at 45 ng/mL ([5]; 45.0 ng/mL, after three freeze and thaw cycles): 101 ± 4.4% | remaining at 1248 h, 45 ng/mL ([5]; 45.0 ng/mL, long term-stability (−80 °C for 52 days)): 102 ± 1.9% | remaining at 24 h, 45 ng/mL ([5]; 45.0 ng/mL, post-preparative stability (autosampler at 4 °C for at least 24 h)): 102 ± 2.7% | remaining at 24 h, 45 ng/mL ([5]; 45.0 ng/mL, short-term stability (24 h at room temperature)): 102 ± 3.7% | remaining at 1600 ng/mL ([5]; 1600 ng/mL, after three freeze and thaw cycles): 105 ± 1.1% | remaining at 1248 h, 1600 ng/mL ([5]; 1600 ng/mL, long term-stability (−80 °C for 52 days)): 106 ± 2.1% | remaining at 24 h, 1600 ng/mL ([5]; 1600 ng/mL, post-preparative stability (autosampler at 4 °C for at least 24 h)): 101.7 ± 1% | remaining at 24 h, 1600 ng/mL ([5]; 1600 ng/mL, short-term stability (24 h at room temperature)): 101.7 ± 0.9% | Anti-COPD activity compared with RES [6]: stronger anti-COPD activity than RES

— PMC12430278, “A Simple and Reliable Method for the Determination of Isorhapontigenin in Murine Biological Matrices: Application in a Tissue Distribution Study” (Molecules, 2025)
